How the values were obtained:
[1] = biological target: T1, hKv7.2/7.3 (Homo sapiens, UniProt O43525+O43526); assay: Kv7.2/7.3 Activation Assay, QPatch planar patch-clamp single concentration screen; type: cell-based; conditions: increase in current over baseline, Kv7.2/Kv7.3 co-expressing HEK cells, compound concentration 3 μM, steady-state current at end of 2 s pulse to −30 mV
T1 construct: host or cells: HEK cells, tetracycline-inducible expression
Summary of the method: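 Tetracycline-induced HEK cells expressing hKv7.2/7.3, recorded 24 h post-induction by automated whole-cell patch clamp (−80 mV hold, 2 s step to −30 mV). Compound tested at 3 μM (0.1% DMSO); fold increase in steady-state current at end of the −30 mV step over baseline.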

[2] = biological target: T1, hKv7.2/7.3; assay: Kv7.2/7.3 Thallium Flux Assay; type: cell-based; parameters: key to Thallium Flux Kv7.2/7.3 Activity: 3-10 μM (*); 1-3 μM (**); <1 μM (***); NC stands for Not Calculable; conditions: EC50 of Kv7.2/Kv7.3 activation, responses normalized to retigabine 30 μM
Description: The Thallium Flux Assay is used as a surrogate indicator of potassium channel activity.
The experimental protocol was adapted from the FluxOR™ II Green Potassium Ion Channel Assay User Guide (Pub. No. MAN0016084, Invitrogen). Conditions were optimized for the Kv7.2/7.3 cell line.
Cell Line: The hKv7.2/7.3 cell line was obtained from Chantest (Cleveland, OH 44128) cat. #CT6147.
Cell Culture: Kv7.2/7.3 cells were maintained in a media containing DMEM/F12; 50/50 (GIBCO cat. #11330), 10% Fetal Bovine Serum (FBS) (GIBCO cat. #26140), 100 units/mL Penicillin-Streptomycin (GIBCO cat. #15140), 0.005 mg/ml Blasticidin (SIGMA 15205), 0.5 mg/mL Geneticin (GIBCO cat. #10131), and 0.1 mg/mL Zeocin (GIBCO cat. #R25001). One day prior to experimentation, cells were plated in 96 well clear bottom plates (Corning cat. #353219) in a media without Blasticidin, Geneticin, or Zeocin. Channel expression was induced by adding tetracycline (Bioline cat. #BIO87030) at a final concentration of 10 ng/mL.
Compound Plates: The test compound is diluted in a mixture of 0.1% DMSO/extracellular solution with an eight-point concentration range from 0.014 μM to 30 μM. Serial dilutions were made on a Biomek NXP (BECKMAN COULTER).
Measurement and data analysis: A plate reader (Enspire, Perkin Elmer) is used to characterize the ion-channel modulating properties of novel compounds using an excitation wavelength of 475 nm and an emission wavelength of 530 nm. After a 15 sec baseline measurement, the stimulus buffer containing thallium and potassium is injected. A final endpoint measure is taken after 90 sec. Responses are normalized to positive control (retigabine, 30 μM max). Mean normalized responses at each concentration tested are fit to the standard Hill equation to generate an EC50 and maximal response.

QPatch Kv7.2/7.3 Activity [1] | EC50 [2] [µM] | Thallium Flux Kv7.2/7.3 Activity [2] | SMILES
– | < 1 | – | N#Cc1ccn2nc(NC(=O)C[C@H]3CC(F)(F)C3(F)F)c(C3CCC3)c2c1 [Example 94, (S)-N-(5-cyano-3-cyclobutylpyrazolo[1,5-a]pyridin-2-yl)-2-(2,2,3,3-tetrafluorocyclobutyl) acetamide]
+ (2.0-3.99 (+)) | < 1 | – | CC(C)(O)c1ccn2nc(NC(=O)C[C@H]3CC(F)(F)C3(F)F)c(C3CCC3)c2c1 [Example 95, (S)-N-(3-cyclobutyl-5-(2-hydroxypropan-2-yl)pyrazolo [1,5-a]pyridin-2-yl)-2-(2,2,3,3-tetrafluorocyclobutyl) acetamide]
– | – | NC | N#Cc1ccn2nc(NC(=O)C[C@@H]3CC(F)(F)C3(F)F)c(C3CCC3)c2c1 [Example 96, (R)-N-(5-cyano-3-cyclobutylpyrazolo[1,5-a]pyridin-2-yl)-2-(2,2,3,3-tetrafluorocyclobutyl) acetamide]
– | – | NC | N#Cc1ccn2nc(NC(=O)CC3(C(F)(F)F)CC3)c(C3CCC3)c2c1 [Example 97, N-(5-cyano-3-cyclobutylpyrazolo[1,5-a]pyridin-2-yl)-2-(1-(trifluoromethyl)cyclopropyl)acetamide]
– | < 1 | – | CC(C)(O)c1ccn2nc(NC(=O)C[C@@H]3CC(F)(F)C3(F)F)c(C3CCC3)c2c1 [Example 98, (R)-N-(3-cyclobutyl-5-(2-hydroxypropan-2-yl)pyrazolo[1,5-a]pyridin-2-yl)-2-(2,2,3,3-tetrafluorocyclobutyl) acetamide]

The remaining lines, values behind:

SMILES | QPatch Kv7.2/7.3 Activity [1] | EC50 [2] [µM] | Thallium Flux Kv7.2/7.3 Activity [2]
CC(C)(C)CC(=O)Nc1nn2ccc(C#N)cc2c1C1CCC1 [Example 3, N-(5-cyano-3-cyclobutylpyrazolo[1,5-a]pyridin-2-yl)-3,3-dimethylbutanamide] | + (2.0-3.99 (+)) | < 1 | –
CC(C)(O)CC(=O)Nc1nn2ccc(C(F)(F)F)cc2c1-c1ccc(F)cc1 [Example 14, N-(3-(4-fluorophenyl)-5-(trifluoromethyl)pyrazolo [1,5-a]pyridin-2-yl)-3-hydroxy-3-methylbutanamide] | + (2.0-3.99 (+)) | < 1 | –
CC(C)(C)CC(=O)Nc1nn2ccc(C(C)(C)O)cc2c1C1CCC1 [Example 57, N-(3-cyclobutyl-5-(2-hydroxypropan-2-yl)pyrazolo[1,5-a]pyridin-2-yl)-3,3-dimethylbutanamide] | ++ (4.0-5.99 (++)) | < 1 | –
CC(C)(C)CC(=O)Nc1nn2ccc(C#N)cc2c1C(C)(C)C [Example 88, N-(3-(tert-butyl)-5-cyanopyrazolo[1,5-a]pyridin-2-yl)-3,3-dimethylbutanamide] | – | – | NC
CC(C)(C)c1c(NC(=O)CC(C)(C)C(F)(F)F)nn2ccc(C#N)cc12 [Example 89, N-(3-(tert-butyl)-5-cyanopyrazolo[1,5-a]pyridin-2-yl)-4,4,4-trifluoro-3,3-dimethylbutanamide] | – | – | NC
CC(C)(C)c1c(NC(=O)C[C@@H]2CC(F)(F)C2(F)F)nn2ccc(C#N)cc12 [Example 90, (R)-N-(3-(tert-butyl)-5-cyanopyrazolo[1,5-a]pyridin-2-yl)-2-(2,2,3,3-tetrafluorocyclobutyl) acetamide] | – | – | NC
CC(C)(C)CC(=O)Nc1nn2ccccc2c1C#N [Example 91, N-(3-cyanopyrazolo [1,5-a]pyridin-2-yl)-3,3-dimethylbutanamide] | – | – | NC
CCOC(=O)c1c(NC(=O)CC(C)(C)C)nn2ccccc12 [Example 92, ethyl 2-(3,3-dimethylbutanamido) pyrazolo[1,5-a]pyridine-3-carboxylate] | – | – | NC
CC(C)(C)CC(=O)Nc1nn2ccccc2c1C(C)(C)O [Example 93, N-(3-(2-hydroxypropan-2-yl)pyrazolo[1,5-a]pyridin-2-yl)-3,3-dimethylbutanamide] | – | < 1 | –

Source: US20250066351A1, “PYRAZOLO[1,5-A]PYRIDIN-2,3-YL AMIDES AS KV7 CHANNEL ACTIVATORS” (Biohaven Therapeutics Ltd., priority 2022, published 2025)
